Reference: US5721223A, “Imidazo[1,2-a] Pyridinyldiacid compounds for cognitive enhancement and for treatment of cognitive disorders and neurotoxic injury” (priority 1995, dated 1998)
Where a name gives a salt, the structure may show the parent alone.

Target: T1, glycine receptor site (Rattus norvegicus, UniProt P35439)
T1 construct: Synaptic plasma membranes (SPM) were prepared from rat forebrain; from tissue; host or cells: rat forebrain synaptic plasma membranes
Assay: Glycine binding assay ([3H]GLY)
Settings: [3H]glycine 10 nM, rat forebrain SPM
Experimental: Synaptic plasma membranes (SPM) were prepared from rat forebrain and stored as previously described [J. B. Monahan and J. Michel, J. Neurochem, 48, 1699-1708 (1987)]. Frozen membranes were thawed and diluted 1:20 with 0.04% Triton X-100 in 50 mM tris/acetate (pH 7.4). Following incubation at 37° C. for 30 min., the SPM were collected by centrifugation at 95,000×g for 15 min. The pellet was resuspended in 50 mM tris/acetate (pH 7.4, Triton-free) and hand-homogenized five times. The membranes were again centrifuged as above. The pellet was washed two additional times with 50 mM tris/acetate (without homogenization) and centrifuged. The final pellet was resuspended with homogenization in 50 mM tris/acetate. In the general receptor binding assay procedure, 10 nM [3H]glycine was added to the appropriate concentration of the test compounds and the assay initiated by the addition of 0.2-0.4 mg of ice cold SPM. […] Beckman MP scintillation cocktail (5 mL) containing 7 mL/liter acetic acid was then added and the samples counted on a Beckman LS 5800 liquid scintillation counter with automatic corrections for quenching and counting efficiency. […] The binding of [3H]glycine to the SPM was analyzed using Scatchard and Hill transformations and the Ki for other compounds was determined using logit-log analysis. […]

O=C(O)Cc1c(C(=O)O)nc2ccccn12 [Example 3, hydrochloride]
Ki: 51 µM
